Test results as given in patent US20250213532A1, “5-METHOXY-N,N-[…][…] THE TREATMENT OF BIPOLAR DISORDER” (GH RESEARCH IRELAND LIMITED, priority 2022, published 2025).

What was measured:
[1] = test system: patients with treatment-resistant major depressive disorder (TRD); assay: Phase 1/2 clinical trial of inhaled 5-MeO-DMT in TRD: BPRS; type: in vivo, human; details: for BPRS Emotional Withdrawal percentage improvement / BPRS Emotional Withdrawal score (sum): baseline 13
Description: The Brief Psychiatric Rating Scale (BPRS) is intended to screen for psychiatric symptoms in a structured fashion. The scale is one of the most widely used scales to measure psychotic symptoms and was first published in 1962. The design has later been updated.
The 18 items (somatic concern, anxiety, emotional withdrawal, conceptual disorganization, guilt feelings, tension, mannerisms and posturing, grandiosity, depressive mood, hostility, suspiciousness, hallucinatory behaviour, motor retardation, uncooperativeness, unusual thought content, blunted affect, excitement and disorientation) are scored and each item is rated on a scale of 1-7.
Based on the answers and the behaviours observed, a physician or psychologist will complete the BPRS form by ranking the severity of each area using a scale of one to seven: a score of one means an absence of signs or symptoms up to a score of seven that means it is present and at a severe level. If it is not possible to rate the specific signs or symptoms, a score of 0 or “Not assessed” is recorded.
Patients were assigned to different groups.
This trial was designed in two parts.

[2] = test system: patients with treatment-resistant major depressive disorder (TRD); assay: Phase 1/2 clinical trial of inhaled 5-MeO-DMT in TRD: safety and tolerability; details: Part A
Description: This trial was designed in two parts. Part A was an open-label, single-arm, single-dose Phase 1 trial with two dose levels (12 mg (n=4) and 18 mg (n=4)). […] The primary endpoint of Part B was to assess the effects on the severity of depression, as assessed by the proportion of patients in remission on day seven after dosing, defined as a MADRS total score of less than or equal to 10.

[3] = test system: Salmonella typhimurium TA98, TA100, TA1535 and TA1537; assay: Bacterial mutation test, Salmonella typhimurium; type: cell-based; details: up to 5000 µg/plate; absence and presence of rat liver S-9
Description: (§1) These conditions included treatments at concentrations up to […] (the maximum recommended concentration according to current regulatory guidelines), in the absence and in the presence of a rat liver metabolic activation system (S-9).

[4] = test system: Escherichia coli WP2 uvrA pKM101; assay: Bacterial mutation test, Escherichia coli; type: cell-based; details: up to 5000 pg/plate; absence and presence of rat liver S-9
Description: as §1

[5] = 12 mg n=4, 3 hours, baseline 11
[6] = 12 mg n=4, 3 hours, baseline 14
[7] = 12 mg n=4, 3 hours, baseline 18
[8] = 12 mg n=4, 3 hours, baseline 25

Compound: COc1ccc2[nH]cc(CCN(C)C)c2c1 [5-MeO-DMT]
- BPRS Blunted Affect percentage improvement [1, 5]: 27%
- BPRS Blunted Affect score (sum) [1, 5]: 8
- BPRS Emotional Withdrawal percentage improvement ([1]; 12 mg n=4, 3 hours): 15%
- BPRS Emotional Withdrawal score (sum) ([1]; 12 mg n=4, 3 hours): 11
- BPRS Tension percentage improvement [1, 6]: 36%
- BPRS Tension score (sum) [1, 6]: 9
- BPRS Guilt Feelings percentage improvement [1, 7]: 50%
- BPRS Guilt Feelings score (sum) [1, 7]: 9
- BPRS Anxiety percentage improvement [1, 8]: 56%
- BPRS Anxiety score (sum) [1, 8]: 11
- BPRS Blunted Affect score (sum) ([1]; 12 mg n=4, Day 1, baseline 11): 6
- BPRS Emotional Withdrawal score (sum) ([1]; 12 mg n=4, Day 1): 8
- BPRS Tension percentage improvement ([1]; 12 mg n=4, Day 1, baseline 14): 57%
- BPRS Tension score (sum) ([1]; 12 mg n=4, Day 1, baseline 14): 6
- BPRS Guilt Feelings percentage improvement ([1]; 12 mg n=4, Day 1, baseline 18): 72%
- BPRS Guilt Feelings score (sum) ([1]; 12 mg n=4, Day 1, baseline 18): 5
- BPRS Anxiety percentage improvement ([1]; 12 mg n=4, Day 1, baseline 25): 76%
- BPRS Anxiety score (sum) ([1]; 12 mg n=4, Day 1, baseline 25): 6
- BPRS Blunted Affect score (sum) ([1]; 12 mg n=4, Day 7, baseline 11): 5
- BPRS Emotional Withdrawal score (sum) ([1]; 12 mg n=4, Day 7): 6
- BPRS Tension percentage improvement ([1]; 12 mg n=4, Day 7, baseline 14): 57%
- BPRS Tension score (sum) ([1]; 12 mg n=4, Day 7, baseline 14): 6
- BPRS Guilt Feelings percentage improvement ([1]; 12 mg n=4, Day 7, baseline 18): 72%
- BPRS Guilt Feelings score (sum) ([1]; 12 mg n=4, Day 7, baseline 18): 5
- BPRS Anxiety percentage improvement ([1]; 12 mg n=4, Day 7, baseline 25): 76%
- BPRS Anxiety score (sum) ([1]; 12 mg n=4, Day 7, baseline 25): 6
- BPRS Emotional Withdrawal percentage improvement ([1]; IDR n=8, 3 hours): 38%
- BPRS Emotional Withdrawal score (sum) ([1]; IDR n=8, 3 hours): 8
- BPRS Blunted Affect percentage improvement ([1]; IDR n=8, 3 hours, baseline 15): 27%
- BPRS Blunted Affect score (sum) ([1]; IDR n=8, 3 hours, baseline 15): 11
- BPRS Tension percentage improvement ([1]; IDR n=8, 3 hours, baseline 16): 31%
- BPRS Tension score (sum) ([1]; IDR n=8, 3 hours, baseline 16): 11
- BPRS Guilt Feelings percentage improvement ([1]; IDR n=8, 3 hours, baseline 34): 59%
- BPRS Guilt Feelings score (sum) ([1]; IDR n=8, 3 hours, baseline 34): 14
- BPRS Anxiety percentage improvement ([1]; IDR n=8, 3 hours, baseline 37): 49%
- BPRS Anxiety score (sum) ([1]; IDR n=8, 3 hours, baseline 37): 19
- BPRS Emotional Withdrawal score (sum) ([1]; IDR n=8, Day 1): 8
- BPRS Blunted Affect score (sum) ([1]; IDR n=8, Day 1, baseline 15): 8
- BPRS Tension percentage improvement ([1]; IDR n=8, Day 1, baseline 16): 31%
- BPRS Tension score (sum) ([1]; IDR n=8, Day 1, baseline 16): 11
- BPRS Guilt Feelings percentage improvement ([1]; IDR n=8, Day 1, baseline 34): 68%
- BPRS Guilt Feelings score (sum) ([1]; IDR n=8, Day 1, baseline 34): 11
- BPRS Anxiety percentage improvement ([1]; IDR n=8, Day 1, baseline 37): 57%
- BPRS Anxiety score (sum) ([1]; IDR n=8, Day 1, baseline 37): 16
- BPRS Emotional Withdrawal score (sum) ([1]; IDR n=8, Day 7): 8
- BPRS Blunted Affect score (sum) ([1]; IDR n=8, Day 7, baseline 15): 8
- BPRS Tension percentage improvement ([1]; IDR n=8, Day 7, baseline 16): 38%
- BPRS Tension score (sum) ([1]; IDR n=8, Day 7, baseline 16): 10
- BPRS Guilt Feelings percentage improvement ([1]; IDR n=8, Day 7, baseline 34): 71%
- BPRS Guilt Feelings score (sum) ([1]; IDR n=8, Day 7, baseline 34): 10
- BPRS Anxiety percentage improvement ([1]; IDR n=8, Day 7, baseline 37): 54%
- BPRS Anxiety score (sum) ([1]; IDR n=8, Day 7, baseline 37): 17
- Patients who experienced at least one ADR ([2]; 12 mg single dose): 3 of 4
- Patients who experienced at least one ADR ([2]; 18 mg single dose): 3 of 4
- Induction of mutation [3]: did not induce mutation
- Induction of mutation [4]: did not induce mutation
